Experimental findings from patent US12275729B2 (Merck Sharp & Dohme LLC, priority 2017, dated 2025) are described below.

Each structure is given as a SMILES string. pIC50: −log10 of the molar value.

Chain of IDO1 (P14902 whole entry): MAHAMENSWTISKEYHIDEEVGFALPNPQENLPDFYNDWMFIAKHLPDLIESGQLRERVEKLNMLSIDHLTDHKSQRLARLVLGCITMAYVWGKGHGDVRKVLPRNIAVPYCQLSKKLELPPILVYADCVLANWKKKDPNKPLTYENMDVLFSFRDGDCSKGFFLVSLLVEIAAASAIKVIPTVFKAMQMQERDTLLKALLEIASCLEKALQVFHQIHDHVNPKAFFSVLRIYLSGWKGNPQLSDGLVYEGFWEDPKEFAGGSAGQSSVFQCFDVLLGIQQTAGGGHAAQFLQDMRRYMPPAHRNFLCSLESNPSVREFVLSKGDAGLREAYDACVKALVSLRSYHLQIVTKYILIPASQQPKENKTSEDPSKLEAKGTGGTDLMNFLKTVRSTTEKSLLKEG

The first assay has as its target IDO1 (Homo sapiens, UniProt P14902). The assay is described as follows: IDO1 Cellular Assay in HeLa Cells Stimulated with IFNγ. It counts as cell-based. Conditions: about 48 hours, read-out: Hela IC50.
One may read the pIC50 as −log10 of the IC50, conventionally taken in molar units. For `CCOC(=O)N1CCCc2cc(C3(C(=O)Nc4ccc(F)cn4)CCC3)ccc21` [Example 211, ethyl 6-{1-[(5-fluoropyridin-2-yl)carbamoyl]-cyclobutyl}-3,4-dihydroquinoline-1(2H)-carboxylate], the pIC50 is 8.66.

For `CC(C(=O)Nc1ccc(F)cc1)c1ccc2c(n1)CCCN2C(=O)C1CCCCO1` (single isomer, unassigned) [Example 161, N-(4-fluorophenyl)-2-[5-(oxane-2-carbonyl)-5,6,7,8-tetrahydro-1,5-naphthyridin-2-yl]propanamide], the pIC50 is 8.25.

Turning to `Cc1n[nH]c(C(=O)N2CCCc3cc(C(C)C(=O)Nc4ccc(F)cc4)ccc32)n1` (centres unmarked) [Example 42, N-(4-fluorophenyl)-2-[1-(3-methyl-1H-1,2,4-triazole-5-carbonyl)-1,2,3,4-tetrahydroquinolin-6-yl]propanamide], the pIC50 was 7.42.

Consider `CC(C(=O)Nc1ccc(F)cc1)c1ccc2c(n1)CCCN2C(=O)C1CCCCO1` (single isomer, unassigned) [Example 159, N-(4-fluorophenyl)-2-[5-(oxane-2-carbonyl)-5,6,7,8-tetrahydro-1,5-naphthyridin-2-yl]propanamide], for which the negative logarithm of the IC50 (pIC50) is 8.82.

Consider `CC(C)C(=O)N1CCCc2cc([C@H](C)C(=O)Nc3ccc(F)cc3)ccc21` [Example 83, (2S)-N-(4-fluorophenyl)-2-[1-(2-methylpropanoyl)-1,2,3,4-tetrahydroquinolin-6-yl]propanamide], for which the pIC50 is 8.03.

For the molecule `C[C@@H](NC(=O)c1ccc(F)cc1)c1ccc2c(n1)CCCN2C(=O)[C@@H]1CC1(F)F` (single isomer, unassigned) [Example 135], the pIC50 was 6.38.

In the case of `COC(C)C(=O)N1CCCc2cc([C@H](C)C(=O)Nc3ccc(F)cc3)ccc21` (single isomer, unassigned) [Example 76], the negative-log IC50 (pIC50) was 7.59.

`CC(C)(C(=O)Nc1ccc(F)cc1)c1ccc2c(n1)CCCN2C(=O)c1cccc(Cl)c1` [Example 188, 2-[5-(3-chlorobenzene-1-carbonyl)-5,6,7,8-tetrahydro-1,5-naphthyridin-2-yl]-N-(4-fluorophenyl)-2-methylpropanamide]: the pIC50 was 8.24.

For the molecule `CC(C)n1cc(C(=O)NCc2ccc3c(c2)CCCN3C(=O)c2cccc(Cl)c2)cn1` [Example 19, N-{[1-(3-chlorobenzene-1-carbonyl)-1,2,3,4-tetrahydroquinolin-6-yl]methyl}-1-(propan-2-yl)-1H-pyrazole-4-carboxamide], the pIC50 is 6.36.

Regarding `O=C(c1cc(C(F)(F)F)n[nH]1)N1CCCc2cc(C3(C(=O)Nc4ccc(F)cc4)CCC3)ccc21` [Example 116, N-(4-fluorophenyl)-1-{1-[3-(trifluoromethyl)-1H-pyrazole-5-carbonyl]-1,2,3,4-tetrahydroquinolin-6-yl}cyclobutane-1-carboxamide], the negative-log IC50 (pIC50) is 7.29.

Turning to `CC(C(=O)Nc1ccc(F)cc1)c1ccc2c(n1)CCCN2C(=O)C1CCCCO1` (single isomer, unassigned) [Example 160, N-(4-fluorophenyl)-2-[5-(oxane-2-carbonyl)-5,6,7,8-tetrahydro-1,5-naphthyridin-2-yl]propanamide], the negative logarithm of the IC50 (pIC50) was 8.09.

Regarding `CC(C)CC(=O)N1CCCc2cc([C@H](C)NC(=O)c3ccc(Cl)cc3)ccc21` (single isomer, unassigned) [Example 27], the negative-log IC50 (pIC50) is 7.37.

Consider `COC(=O)N1CCCc2nc(C(C)C(=O)Nc3ccc(Cl)cc3)ccc21` (centres unmarked) [Example 221, methyl 6-{1-[(4-chlorophenyl)amino]-1-oxopropan-2-yl}-3,4-dihydro-1,5-naphthyridine-1(2H)-carboxylate], for which the pIC50 was 7.70.

For `CC(C(=O)Nc1ccc(F)cc1)c1ccc2c(c1)CCCN2C1CCCCC1` (centres unmarked) [Example 228, 2-(1-cyclohexyl-1,2,3,4-tetrahydroquinolin-6-yl)-N-(4-fluorophenyl)propanamide], the pIC50 was 5.38.

As for `C[C@H](C(=O)Nc1ccc(F)cc1)c1ccc2c(c1)CCCN2C(=O)C1CC(F)(F)C1` [Example 79, (2S)-2-[1-(3,3-difluorocyclobutane-1-carbonyl)-1,2,3,4-tetrahydroquinolin-6-yl]-N-(4-fluorophenyl)propanamide], the negative-log IC50 (pIC50) was 7.46.

In the case of `C[C@H](NC(=O)c1ccc(F)cc1)c1ccc2c(c1)CCCN2C(=O)C1(F)CC1` (single isomer, unassigned) [Example 32], the pIC50 is 7.56.

For `C[C@@H](NC(=O)c1ccc(F)cn1)c1ccc2c(c1)CCCN2C(=O)C1(F)CC1` (single isomer, unassigned) [Example 33], the negative logarithm of the IC50 (pIC50) is 6.14.

Regarding `Cc1nccc(N2CCCc3nc(C4(NC(=O)c5ccc(Cl)cc5)CC4)ccc32)n1` [Example 299, 4-chloro-N-(1-(5-(2-methylpyrimidin-4-yl)-5,6,7,8-tetrahydro-1,5-naphthyridin-2-yl)cyclopropyl)benzamide], the pIC50 was 9.13.

As to `CC(NC(=O)c1ccc(F)cc1)c1ccc2c(n1)CCCN2C(=O)c1cccc(Cl)c1Cl` (centres unmarked) [Example 148, N-{1-[5-(2,3-dichlorobenzene-1-carbonyl)-5,6,7,8-tetrahydro-1,5-naphthyridin-2-yl]ethyl}-4-fluorobenzamide], the pIC50 was 8.60.

For the molecule `O=C(N1CCCc2cc(C3(C(=O)Nc4ccc(F)cn4)CCC3)ccc21)C1(F)CC1` [Example 99, 1-[1-(1-fluorocyclopropane-1-carbonyl)-1,2,3,4-tetrahydroquinolin-6-yl]-N-(5-fluoropyridin-2-yl)cyclobutane-1-carboxamide], the negative logarithm of the IC50 (pIC50) is 7.77.

In the case of `C[C@H](C(=O)Nc1ccc(F)cc1)c1ccc2c(c1)CCCN2C(=O)CC(C)(C)O` [Example 71, (2S)-N-(4-fluorophenyl)-2-[1-(3-hydroxy-3-methylbutanoyl)-1,2,3,4-tetrahydroquinolin-6-yl]propanamide], the pIC50 is 7.52.

Regarding `Cc1cnc(C(=O)N2CCCc3cc(C(C)C(=O)Nc4ccc(F)cc4)ccc32)s1` (centres unmarked) [Example 41, N-(4-fluorophenyl)-2-[1-(5-methyl-1,3-thiazole-2-carbonyl)-1,2,3,4-tetrahydroquinolin-6-yl]propanamide], the pIC50 is 8.34.

For the molecule `CC(NC(=O)c1ccc(F)cc1)c1ccc2c(n1)C(F)CCN2C(=O)C1CC1` (single isomer, unassigned) [Example 203, N-(1-(5-(cyclopropanecarbonyl)-8-fluoro-5,6,7,8-tetrahydro-1,5-naphthyridin-2-yl)ethyl)-4-fluorobenzamide], the negative-log IC50 (pIC50) was 5.12.

As for `CC(NC(=O)c1ccc(F)cc1)c1ccc2c(n1)CCCN2C(=O)c1cccc(C(F)(F)F)c1` (centres unmarked) [Example 284, 2-(1-(4-fluorobenzamido)ethyl)-5-(3-(trifluoromethyl)benzoyl)-5,6,7,8-tetrahydro-1,5-naphthyridin-1-ium 2,2,2-trifluoroacetate], the pIC50 is 8.92.

Staying with this assay, now noted: read-out: Hela IC50.
For the molecule `Cc1nc(N2CCCc3nc(C(C)NC(=O)c4ccc(Cl)cc4)ccc32)c2cc(F)ccc2n1` (centres unmarked) [Example 360, 2-(1-(4-chlorobenzamido)ethyl)-5-(6-fluoro-2-methylquinazolin-4-yl)-5,6,7,8-tetrahydro-1,5-naphthyridin-1-ium 2,2,2-trifluoroacetate], the negative-log IC50 (pIC50) is 7.59.

Regarding `Cc1nccc(N2CCCc3nc(C(C)C(=O)Nc4ccc(F)cc4)ccc32)n1` (centres unmarked) [Example 371, N-(4-fluorophenyl)-2-(5-(2-methylpyrimidin-4-yl)-5,6,7,8-tetrahydro-1,5-naphthyridin-2-yl)propanamide], the negative logarithm of the IC50 (pIC50) is 8.57.
